The values that follow come from patent US20090286831A1, “VR1 Receptor Ligands and u-Opioid Receptor Ligands for the Treatment of Pain” (priority 2006, published 2009).

Marks after values point to notes of the source that are not given here.

Assay [1] concerns the target T1, vanilloid receptor 1 (VR1/TRPV1) (Homo sapiens, UniProt Q8NER1).
T1 construct: expressed in transfected cells; host or cells: CHO K1 cells (ECACC), stably transfected
Briefly: FLIPR capsaicin assay. Type of assay: cell-based, human or rat. The conditions noted are these: functional Ki, capsaicin 100 nM, VR1-transfected CHO K1 cells, modified Cheng-Prusoff; read-out: f(Ki) (VR1). The text has this: (§1) The agonist or antagonist effect of substances can be determined at the vanilloid receptor 1 (VR1/TRPV1) of the human and rat species with the assay described below. Accordingly, the Ca^2+ influx through the channel is quantified by means of a Ca^2+-sensitive dye (Fluo-4, Molecular Probes Europe BV, Leiden, The Netherlands) in the fluorescent imaging plate reader (FLIPR, Molecular Devices, Sunnyvale, USA).
(§2) Chinese hamster ovary cells (CHO K1 cells, ECACC, England) are stably transfected with human or rat VR1 cDNA. For functional studies these cells are plated onto poly-D-lysine-coated black 96-hole plates with a clear base (BD Biosciences, Heidelberg, Germany) in a density of 25 000 cells/cavity. The cells are incubated overnight at 37° C. with 5% CO2 in culture medium (nutrient mixture Ham's F12, Gibco Invitrogen GmbH, Karlsruhe, Germany) with 10% vol. FBS (foetal bovine serum, Gibco Invitrogen GmbH, Karlsruhe, Germany) and 18 μg/ml of L-proline (Gibco Invitrogen GmbH, Karlsruhe, Germany). On the following day, the cells are laden with 2 μM Fluo-4 and 0.01% vol. Pluronic F127 (Molecular Probes Europe BV, Leiden, The Netherlands) in HBSS buffer (Hank's buffered saline solution, Gibco Invitrogen GmbH, Karlsruhe, Germany) for 30 min at 37° C. The plates are then washed 3 times in HBSS buffer and after further incubation for 15 minutes at room temperature are placed in the FLIPR for the Ca^2+ measurement. In this case, the Ca^2+-dependent fluorescence is measured before and after the addition of substances (λex=488 nm, λem=540 nm). Quantification occurs as a result of the measurement of the highest fluorescence intensity (FC, fluorescence counts) over time.
The FLIPR protocol consists of 2 substance additions. Test substances (10 μM) are firstly pipetted onto the cells and the Ca^2+ influx is compared to the control (capsaicin 10 μM). This gives the specification in % activation in relation to the Ca^2+ signal after adding 10 μM of capsaicin. After 5 minutes incubation 100 nM of capsaicin are applied and the influx of Ca^2+ likewise determined. Desensitising agonists and antagonists lead to a suppression of the Ca^2+ influx. Inhibition values [%] are calculated in comparison to the maximum achievable inhibition with a saturating concentration of […] or another reference antagonist. The test substance is added in different concentrations to determine the IC50 and functional Ki value ((f)Ki). Triple determinations (n=3) are conducted and these are repeated in at least one further independent experiment (N>=2). A capsaicin dose action curve is generated to incorporate the thus determined EC50 values into the associated (f)Ki determination. EC50/IC50 values are calculated using ‘Prism4’ software from GraphPad Software™ or with XLfit4™ (ID Business Solutions Ltd.). (f)Ki values are calculated in accordance with the modified Cheng-Prusoff equation (Cheng, Prusoff; Biochem. Pharmacol. 22, 3099-3108, 1973). Testing for non-specific inhibition of the fluorescence as a result of the substances is conducted by activating wild type CHO K1 cells incubated with the same test substances with ATP (10 μM final concentration).

A further assay deals with male NMRI mice. Briefly: Hypothermia assay in mice (capsaicin-induced hypothermia). Format: in vivo, mouse. Conditions: dosage 3 mg/kg p.o., capsaicin 3 mg/kg i.p. How it is done: The hypothermia assay was conducted on male NMRI mice (weight 25-35 gram). The animals were kept in standardised conditions: light/dark rhythm (6:00 to 18:00 h light phase, 18:00 to 6:00 h dark phase), room temperature 19-22° C., relative air humidity 35-70%, air exchange 15 times per hour, air movement <0.2 m/sec. The animals received standard feed (ssniff R/M-Haltung, ssniff Spezialdiäten GmbH, Soest, Germany) and tap water. Water and feed were withdrawn during the test. All the animals were used only once in the test. […] The acute application of capsaicin (VR-1 agonist) causes a drop in core body temperature in rats and mice via a stimulation of heat sensors. Only specific active VR-1 receptor antagonists can antagonise capsaicin-induced hypothermia. In contrast, hypothermia induced by morphine is not antagonised by VR-1 antagonists. This model is therefore suitable for identifying substances with VR-1 antagonist properties via the effect on the body temperature.
A digital thermometer (Thermalert TH-5, physitemp, Clifton N.J., USA) is used for measuring the core body temperature. The measurement sensor is inserted into the rectum of the animals in this case. As an individual base value the body temperature is measured twice in each animal at an interval of approximately half an hour. A group of animals (n=6 to 10) then received an intraperitoneal (i.p.) application of capsaicin of 3 mg/kg and vehicle (control group). Another group of animals received the substance to be tested (i.v. or p.o.) and additionally capsaicin (3 mg/kg) i.p. The test substance was applied i.v. 10 min or p.o. 15 minutes before the application of capsaicin. Then, the body temperature was measured 7.5, 15 and 30 min after capsaicin application (i.v.+i.p.) or 15, 30, 60, 90 and 120 min after capsaicin application (p.o.+i.p.). In addition, one animal group was treated only with test substance and one group was treated only with vehicle. The antagonist effect is calculated as a percentage reduction in the capsaicin-induced hypothermia.

Another assay relates to rats. Description: Tail-flick (hot beam) test in rats. Type of assay: in vivo, rat. Conditions: dosage 30 mg/kg i.v. How it is done: Sprague Dawley rats (140-160 g body weight) were used for the following animal models. Sprague Dawley rats (140-160 g body weight) from a commercial breeder (Janvier, Genest St. Isle, France) were used. The animals were kept under standard conditions: light-dark rhythm (06:00 to 18:00 h light, 18:00 to 06:00 h dark), room temperature 19-23° C., relative air humidity 45-65%, air exchange 19 times per hour, air movement <0.2 m/s, free choice of tap water and standard feed, Macrolon Type 4 cages with 5 animals per cage. The solutions of the test substances and/or vehicles (10% […], 5% Cremophor EL, 5% glucose) were administered intravenously.
The analgesic efficacy of the test compounds was examined in the hot beam (tail flick) test in rats using the method of D'Amour and Smith (J. Pharm. Exp. Ther. 1941, 72, 74-79). The time from switching on the lamp (8V/50 W) to the sudden flicking away of the tail from the hot beam (pain latency) was measured by means of a semiautomatic apparatus (tail-flick Analgesiemeter Type 50/08/1.bc, Labtec, Dr. Hess, Germany). The lamp intensity was adjusted before conducting the experiments so that the time from switching on the lamp to the sudden flicking away of the tail (pain latency) amounted to 3-5 seconds in untreated animals. The lamp was automatically switched off after 12 seconds to avoid tissue damage to the rat's tail. The pain latency was measured 10, 20, 40 and 60 min after intravenous administration. The analgesic effect was determined as increase in pain latency (% MPE) according to the following formula: […]
In this case, T0 is the latency time before and T1 the latency time after substance application, T2 is the maximum exposure time (12 sec). Results of the analgesia study in the tail-flick test in rats:
The following experiments of Example 2 relate to binding studies and the analgesic efficacy of the compounds with dual mode of action according to the invention. The experiments comprise the determination of the (f)Ki value at the TPRV1 receptor, the Ki value at the μ-opioid receptor and the hypothermia assay in mice. The tail-flick test for the compounds [1], [4], [7] and [10] according to the invention was conducted in a similar manner to the above-described method (cf. Example 1, experiment 1).

The target of assay [2] is T2, human recombinant μ-opioid receptor (Homo sapiens, UniProt P35372).
T2 construct: expressed in transfected cells; host or cells: CHO-K1 cells (membrane preparation)
Description: Ki value at the μ-opioid receptor (Experiment 4). Format: binding.

Another assay has as its target T3, human VR1 (Homo sapiens, UniProt Q8NER1).
T3 construct: expressed in transfected cells; host or cells: CHO K1 cells (ECACC), stably transfected
Description: FLIPR pH assay. Format: cell-based.
Source text: as §1, §2
In the pH assay, HBSS that now contains 60 mM MES instead of capsaicin is applied to human VR1-transfected CHO K1 cells (adjusted pH value of the addition solution is 4.95). Percentage inhibition and IC50 values are raised and evaluated as already described for the capsaicin test.

T3 sequence (Q8NER1 whole entry): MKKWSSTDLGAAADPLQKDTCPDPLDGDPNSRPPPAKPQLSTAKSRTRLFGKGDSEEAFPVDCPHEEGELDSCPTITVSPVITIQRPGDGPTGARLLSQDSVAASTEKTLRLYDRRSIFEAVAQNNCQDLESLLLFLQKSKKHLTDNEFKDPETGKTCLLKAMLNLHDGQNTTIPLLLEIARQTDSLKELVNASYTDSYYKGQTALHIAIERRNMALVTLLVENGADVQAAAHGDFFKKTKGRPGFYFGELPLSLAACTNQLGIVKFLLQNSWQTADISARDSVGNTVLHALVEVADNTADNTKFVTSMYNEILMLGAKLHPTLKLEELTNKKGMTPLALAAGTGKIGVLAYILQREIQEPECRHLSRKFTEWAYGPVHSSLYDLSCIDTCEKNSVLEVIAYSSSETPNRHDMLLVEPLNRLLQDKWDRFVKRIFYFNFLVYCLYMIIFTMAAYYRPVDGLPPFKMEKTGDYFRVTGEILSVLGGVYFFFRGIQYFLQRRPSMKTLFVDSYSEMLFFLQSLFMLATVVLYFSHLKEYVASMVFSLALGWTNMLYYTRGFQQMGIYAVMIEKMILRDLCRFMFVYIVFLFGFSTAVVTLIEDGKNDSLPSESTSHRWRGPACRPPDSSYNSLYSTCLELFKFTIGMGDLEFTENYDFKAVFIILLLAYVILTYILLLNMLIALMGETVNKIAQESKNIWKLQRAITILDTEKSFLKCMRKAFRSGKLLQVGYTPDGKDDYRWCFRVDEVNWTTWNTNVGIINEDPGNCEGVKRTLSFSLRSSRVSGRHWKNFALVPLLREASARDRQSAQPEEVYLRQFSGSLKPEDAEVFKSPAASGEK
T1 sequence (Q8NER1 whole entry): as above
T2 sequence (P35372 whole entry): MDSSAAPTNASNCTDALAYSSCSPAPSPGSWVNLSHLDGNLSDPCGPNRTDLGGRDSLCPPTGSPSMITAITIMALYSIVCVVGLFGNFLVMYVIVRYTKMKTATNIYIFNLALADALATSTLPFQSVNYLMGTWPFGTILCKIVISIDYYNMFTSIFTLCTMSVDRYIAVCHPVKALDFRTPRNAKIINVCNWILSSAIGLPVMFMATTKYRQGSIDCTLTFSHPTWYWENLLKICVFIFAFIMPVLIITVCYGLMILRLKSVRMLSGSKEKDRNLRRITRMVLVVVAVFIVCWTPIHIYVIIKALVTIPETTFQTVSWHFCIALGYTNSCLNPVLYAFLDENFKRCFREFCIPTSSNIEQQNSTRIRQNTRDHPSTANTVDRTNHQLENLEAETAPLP

For orientation: Ki means a dissociation constant, usually derived from enzyme kinetics or from competition with a known ligand. One may read the IC50 as the concentration that gives 50% inhibition. Low readings indicate higher potency, high ones lower potency. In the case of `CC(C(=O)NCc1ccc(C(F)(F)F)cc1N1CCC(Cc2ccccc2)(N(C)C)CC1)c1ccc(NS(C)(=O)=O)c(F)c1` (centres unmarked) [[7], N-(2-(4-benzyl-4-(dimethylamino)piperidin-1-yl)-4-(trifluoromethyl)benzyl)-2-(3-fluoro-4-(methylsulfonamido)phenyl)propanamide], the Ki in assay [1] was 2.8 nM; in assay [2], 24 nM. Also, the “Hypothermia Assay [% Inhibition]” value in the assay on male NMRI mice came out at 59%^1). Also, the “Tail-Flick [% MPE]” value in the assay on rats is “n.e.^3), 100%^4) % MPE”. At human VR1, this compound had a half-inhibitory concentration (IC50) of 434 nM.

Regarding `CC(C(=O)NCc1ccc(C(F)(F)F)cc1N1CCC(c2cccs2)(N(C)C)CC1)c1ccc(NS(C)(=O)=O)c(F)c1` (centres unmarked) [[4], N-(2-(4-(dimethylamino)-4-(thiophen-2-yl)piperidin-1-yl)-4-(trifluoromethyl)benzyl)-2-(3-fluoro-4-(methylsulfonamido)phenyl)propanamide], the inhibitory constant (Ki) in assay [1] is 5 nM; in assay [2], 61 nM. For the same compound, in the assay with male NMRI mice, the “Hypothermia Assay [% Inhibition]” value amounted to 4%^1). In addition, the “Tail-Flick [% MPE]” value in the assay on rats is “n.e.^3), 37%^4) % MPE”. On human VR1, the IC50 is 776 nM.

On to `CC(C(=O)NCc1ccc(C(F)(F)F)cc1N1CCC(Cc2cccc(F)c2)(N(C)C)CC1)c1ccc(NS(C)(=O)=O)c(F)c1` (centres unmarked) [[10], N-(2-(4-(dimethylamino)-4-(3-fluorobenzyl)piperidin-1-yl)-4-(trifluoromethyl)benzyl)-2-(3-fluoro-4-(methylsulfonamido)phenyl)propanamide], for which the values for the Ki in assay [1] and in assay [2] were 1.4 nM and 79 nM, respectively. Also, the “Hypothermia Assay [% Inhibition]” value with male NMRI mice turned out to be 29%^1). Moreover, inhibition at human VR1 was half-maximal at 137 nM (IC50).
